Experimental data taken from ChEMBL document CHEMBL3885881, “DrugMatrix”.

Organism: Rattus norvegicus
Experiment: DrugMatrix - Regimen: Daily Repeat
Type: toxicity, organism-based, Sprague-Dawley
Set-up: regimen Daily Repeat, gender Male, age 6-8 weeks
Conditions: in vivo, iv, vehicle 100 % SALINE; for ABSOLUTE BASOPHIL / ABSOLUTE EOSINOPHIL / ABSOLUTE LYMPHOCYTE / ABSOLUTE MONOCYTE / ABSOLUTE SEGMENTED NEUTROPHIL / BASOPHIL / EOSINOPHIL / ERYTHROCYTE COUNT / HEMATOCRIT / HEMOGLOBIN / LEUKOCYTE COUNT / LYMPHOCYTE / MEAN CORPUSCULAR HEMOGLOBIN / MEAN CORPUSCULAR HEMOGLOBIN CONCENTRATION / MEAN CORPUSCULAR VOLUME / MONOCYTE / NEUTROPHIL / NUCLEATED RED BLOOD CELLS / PLATELET COUNT: tissue Blood; for ALANINE AMINOTRANSFERASE / ALBUMIN / ALKALINE PHOSPHATASE / ASPARTATE AMINOTRANSFERASE / BLOOD UREA NITROGEN / CARBON DIOXIDE / CHLORIDE / CHOLESTEROL / CREATINE PHOSPHOKINASE / CREATININE / GLUCOSE / LACTATE DEHYDROGENASE / LIPASE / PHOSPHORUS / POTASSIUM / SODIUM / TOTAL BILIRUBIN / TOTAL PROTEIN / URIC ACID: tissue Plasma
[1] = 0 mg/kg, 72 h, dose level Control, time 3 day
[2] = 0 mg/kg, 120 h, dose level Control, time 5 day
[3] = 0.08 mg/kg, 72 h, dose level Low, time 3 day

CC[C@]1(O)C[C@@H]2CN(CCc3c([nH]c4ccccc34)[C@@](C(=O)OC)(c3cc4c(cc3OC)N(C)[C@H]3[C@@](O)(C(=O)OC)[C@H](OC(C)=O)[C@]5(CC)C=CCN6CC[C@]43[C@@H]65)C2)C1 [VINBLASTINE]
ABSOLUTE BASOPHIL [1]: 0 CELLS/uL
ABSOLUTE EOSINOPHIL [1]: 21.67 CELLS/uL
ABSOLUTE LYMPHOCYTE [1]: 10193.67 CELLS/uL
ABSOLUTE MONOCYTE [1]: 165.83 CELLS/uL
ABSOLUTE SEGMENTED NEUTROPHIL [1]: 702.17 CELLS/uL
BASOPHIL [1]: 0%
EOSINOPHIL [1]: 0.17%
ERYTHROCYTE COUNT [1]: 5.39 x10E6/uL
HEMATOCRIT [1]: 34.62%
HEMOGLOBIN [1]: 13.8 G/DL
LEUKOCYTE COUNT [1]: 11.08 x10E3/uL
LYMPHOCYTE [1]: 91.83%
MEAN CORPUSCULAR HEMOGLOBIN [1]: 25.68 pg
MEAN CORPUSCULAR HEMOGLOBIN CONCENTRATION [1]: 39.9 G/DL
MEAN CORPUSCULAR VOLUME [1]: 64.37 fL
MONOCYTE [1]: 1.5%
NEUTROPHIL [1]: 6.5%
NUCLEATED RED BLOOD CELLS [1]: 0 /100WBC
PLATELET COUNT [1]: 1202.83 x10E3/uL
ALANINE AMINOTRANSFERASE [1]: 55.5 u/L
ALBUMIN [1]: 4.22 G/DL
ALKALINE PHOSPHATASE [1]: 406.83 u/L
ASPARTATE AMINOTRANSFERASE [1]: 101.5 u/L
BLOOD UREA NITROGEN [1]: 13.5 mg/dL
CARBON DIOXIDE [1]: 30.33 mmol/L
CHLORIDE [1]: 102.17 MEQ/L
CHOLESTEROL [1]: 63.67 mg/dL
CREATINE PHOSPHOKINASE [1]: 732.67 u/L
CREATININE [1]: 0.2 mg/dL
GLUCOSE [1]: 157 mg/dL
LACTATE DEHYDROGENASE [1]: 442.5 u/L
LIPASE [1]: 10.83 u/L
PHOSPHORUS [1]: 12.68 mg/dL
POTASSIUM [1]: 5.67 MEQ/L
SODIUM [1]: 144 MEQ/L
TOTAL BILIRUBIN [1]: 0.15 mg/dL
TOTAL PROTEIN [1]: 6.02 G/DL
URIC ACID [1]: 1.55 mg/dL
ABSOLUTE BASOPHIL [2]: 0 CELLS/uL
ABSOLUTE EOSINOPHIL [2]: 17 CELLS/uL
ABSOLUTE LYMPHOCYTE [2]: 11849.17 CELLS/uL
ABSOLUTE MONOCYTE [2]: 69.83 CELLS/uL
ABSOLUTE SEGMENTED NEUTROPHIL [2]: 730.67 CELLS/uL
BASOPHIL [2]: 0%
EOSINOPHIL [2]: 0.17%
ERYTHROCYTE COUNT [2]: 5.93 x10E6/uL
HEMATOCRIT [2]: 37.42%
HEMOGLOBIN [2]: 14.4 G/DL
LEUKOCYTE COUNT [2]: 12.67 x10E3/uL
LYMPHOCYTE [2]: 93.17%
MEAN CORPUSCULAR HEMOGLOBIN [2]: 24.32 pg
MEAN CORPUSCULAR HEMOGLOBIN CONCENTRATION [2]: 38.5 G/DL
MEAN CORPUSCULAR VOLUME [2]: 63.08 fL
MONOCYTE [2]: 0.5%
NEUTROPHIL [2]: 6.17%
NUCLEATED RED BLOOD CELLS [2]: 0 /100WBC
PLATELET COUNT [2]: 1170.5 x10E3/uL
ALANINE AMINOTRANSFERASE [2]: 51 u/L
ALBUMIN [2]: 4.12 G/DL
ALKALINE PHOSPHATASE [2]: 392.67 u/L
ASPARTATE AMINOTRANSFERASE [2]: 81.67 u/L
BLOOD UREA NITROGEN [2]: 16.17 mg/dL
CARBON DIOXIDE [2]: 30.67 mmol/L
CHLORIDE [2]: 100.5 MEQ/L
CHOLESTEROL [2]: 64.83 mg/dL
CREATINE PHOSPHOKINASE [2]: 242.67 u/L
CREATININE [2]: 0.2 mg/dL
GLUCOSE [2]: 186.83 mg/dL
LACTATE DEHYDROGENASE [2]: 188 u/L
LIPASE [2]: 10.83 u/L
PHOSPHORUS [2]: 11.67 mg/dL
POTASSIUM [2]: 5.51 MEQ/L
SODIUM [2]: 142.55 MEQ/L
TOTAL BILIRUBIN [2]: 0.22 mg/dL
TOTAL PROTEIN [2]: 6.08 G/DL
URIC ACID [2]: 1.85 mg/dL
ABSOLUTE BASOPHIL [3]: 0 CELLS/uL
ABSOLUTE EOSINOPHIL [3]: 42 CELLS/uL
ABSOLUTE LYMPHOCYTE [3]: 6254.33 CELLS/uL
ABSOLUTE MONOCYTE [3]: 40 CELLS/uL
ABSOLUTE SEGMENTED NEUTROPHIL [3]: 297 CELLS/uL
BASOPHIL [3]: 0%
EOSINOPHIL [3]: 0.67%
ERYTHROCYTE COUNT [3]: 4.48 x10E6/uL
HEMATOCRIT [3]: 28.87%
HEMOGLOBIN [3]: 11.63 G/DL
LEUKOCYTE COUNT [3]: 6.63 x10E3/uL
LYMPHOCYTE [3]: 94.33%
MEAN CORPUSCULAR HEMOGLOBIN [3]: 26 pg
MEAN CORPUSCULAR HEMOGLOBIN CONCENTRATION [3]: 40.33 G/DL
MEAN CORPUSCULAR VOLUME [3]: 64.43 fL
MONOCYTE [3]: 0.67%
NEUTROPHIL [3]: 4.33%
NUCLEATED RED BLOOD CELLS [3]: 0 /100WBC
PLATELET COUNT [3]: 825.33 x10E3/uL
ALANINE AMINOTRANSFERASE [3]: 47.67 u/L
ALBUMIN [3]: 4.1 G/DL
ALKALINE PHOSPHATASE [3]: 395.67 u/L
ASPARTATE AMINOTRANSFERASE [3]: 99 u/L
BLOOD UREA NITROGEN [3]: 14 mg/dL
CARBON DIOXIDE [3]: 32.33 mmol/L
CHLORIDE [3]: 103.33 MEQ/L
CHOLESTEROL [3]: 67.33 mg/dL
CREATINE PHOSPHOKINASE [3]: 526.33 u/L
CREATININE [3]: 0.17 mg/dL
GLUCOSE [3]: 135 mg/dL
LACTATE DEHYDROGENASE [3]: 170.67 u/L
LIPASE [3]: 10.33 u/L
PHOSPHORUS [3]: 11.9 mg/dL
POTASSIUM [3]: 6.35 MEQ/L
SODIUM [3]: 144.8 MEQ/L
TOTAL BILIRUBIN [3]: 0.17 mg/dL
TOTAL PROTEIN [3]: 5.6 G/DL
URIC ACID [3]: 1.13 mg/dL
